Measured values published in patent publication US11753363B2, “13-oxidized ingenol derivative and use thereof” (Tianjin Pharmaceutical Da Ren Tang Group Corp., Ltd. …, priority 2017, dated 2023).
In brackets after ≈: the same amount, converted by molar mass.

Key:
[1] = system: A549 (human lung cancer cells); assay: Inhibition of proliferation of tumor cell lines (MTT), A549; assay type: cell-based; conditions: Homo sapiens, A549, 72 h, read-out: IC50 value of compound for inhibition of proliferation of tumor cell lines, A549
Summary of the method: (§1)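 Cells in RPMI 1640 with 10% calf serum; adherent lines seeded at about 1×10^5/mL and attached 24 h, K562 at 2×10^5/mL. Compounds added in quadruplicate, 72 h at 37 °C, 5% CO2; MTT 4 h, DMSO-dissolved formazan read at 570 nm. IC50 from log-concentration versus inhibition-rate regression.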

[2] = system: BGC-823 (human gastric cancer cells); assay: Inhibition of proliferation of tumor cell lines (MTT), BGC-823; assay type: cell-based; conditions: Homo sapiens, BGC-823, 72 h, read-out: IC50 value of compound for inhibition of proliferation of tumor cell lines, BGC-823
Summary of the method: as §1

[3] = system: LOVO (human colon cancer cells); assay: Inhibition of proliferation of tumor cell lines (MTT), LOVO; assay type: cell-based; conditions: Homo sapiens, 72 h, read-out: IC50 value of compound for inhibition of proliferation of tumor cell lines, LOVO
Summary of the method: as §1

[4] = system: K562 (human leukemia cells); assay: Inhibition of proliferation of tumor cell lines (MTT), K562; assay type: cell-based; conditions: Homo sapiens, K562, 72 h, read-out: IC50 value of compound for inhibition of proliferation of tumor cell lines, K562
Summary of the method: as §1

[5] = system: SMMC-7721 (human liver cancer cells); assay: Inhibition of proliferation of tumor cell lines (MTT), SMMC-7721; assay type: cell-based; conditions: Homo sapiens, SMMC-7721, 72 h, read-out: IC50 value of compound for inhibition of proliferation of tumor cell lines, SMMC-7721
Summary of the method: as §1

[6] = system: MCF-7 (human breast cancer cells); assay: Inhibition of proliferation of tumor cell lines (MTT), MCF-7; assay type: cell-based; conditions: Homo sapiens, MCF7, MCF-7, 72 h, read-out: IC50 value of compound for inhibition of proliferation of tumor cell lines, MCF-7
Summary of the method: as §1

[7] = system: HeLa (human cervical cancer cells); assay: Inhibition of proliferation of tumor cell lines (MTT), HeLa; assay type: cell-based; conditions: Homo sapiens, 72 h, read-out: IC50 value of compound for inhibition of proliferation of tumor cell lines, HeLA
Summary of the method: as §1

[8] = system: mouse B16-F10 melanoma cells; assay: Inhibition of proliferation of tumor cell lines (MTT), B16-F10; assay type: cell-based; conditions: Mus musculus, B16-F10, 72 h, read-out: IC50 value of compound for inhibition of proliferation of tumor cell lines, B16-F10
Summary of the method: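 Mouse B16-F10 melanoma cells, 1×10^5/mL in RPMI 1640 with 10% calf serum, attached 24 h, then exposed to graded compound concentrations in quadruplicate for 72 h at 37 °C, 5% CO2. MTT added for 4 h, read at 570 nm; IC50 by regression of inhibition rate on log concentration.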

[9] = system: neutrophilic granulocytes; assay: Neutrophil oxidative burst (luminol chemiluminescence); assay type: cell-based; conditions: Neutrophil; 0.1 μg/mL; rat neutrophils; (Csample−Ccontrol)/Ccontrol×100%; read-out: Efficiency of compounds in stimulating neutrophil oxidative burst
Summary of the method: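 Rat neutrophils isolated from abdominal aorta blood, resuspended in Hanks at 1×10^5 cells/well with 1 mM luminol stock added. Oxidative burst read by chemiluminescence after sample addition; efficiency (%) = (Csample−Ccontrol)/Ccontrol×100%.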

[10] = system: release of IL-8 by human keratinocytes (HaCaT); assay: Release of IL-8 by human keratinocytes (HaCaT), IL-8 Elisa; assay type: cell-based; conditions: Homo sapiens, HaCaT; 0.1 μg/mL; 24 h; (Csample−Ccontrol)/Ccontrol×100%; read-out: Efficiency of compound in stimulating the release of IL-8 by HaCaT cells
Summary of the method: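 HaCaT keratinocytes in MEM + 10% FBS, seeded 1×10^4 cells/well for 18-24 h, then switched to 1% FBS medium for 3-6 h. Exposed to a range of compound concentrations for 24 h at 37 °C, 5% CO2. Supernatant IL-8 measured by ELISA; efficiency (%) = (Csample − Ccontrol)/Ccontrol × 100%.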

[11] = system: B16-F0 mouse melanoma; assay: Antitumor activity in B16-F0 mouse melanoma model; assay type: in vivo; conditions: female C57BL/6J mice, intradermal B16 tumor, skin administration once per day for 3 days, 20 μL/mouse, tumor weight on day 19
Protocol: This Example investigated the antitumor activity of compounds in B16-F0 mouse melanoma model.
In vitro passage of B16-F0 tumor source was inoculated subcutaneously into female C57BL/6J mice, and passage was carried out after tumor formation. After passage, the subcutaneous tumor tissue of the tumor-bearing mice was taken and ground with 3 times amount of physiological saline to form a tumor cell suspension, and 0.2 mL/mouse of which was inoculated subcutaneously into the axilla of forelimb of mice, which were used as the tumor-source mice. Female C57BL/6J mice were taken and their hair in an area of 4 cm^2 on the neck and back was shaven. After anesthesia with diethyl ether, B16 tumor source was inoculated intradermally at 0.05 mL/mouse. After 3 days of inoculation, the skin was continuously administered for 3 days, once per day, 20 μL/mouse each time, and in the test, a solvent group as a negative control group was included. On the 19th day of the experiment, the experiment was terminated. After the mice were euthanized, the intradermally transplanted tumors were completely separated and excised, and the tumor was weighed to calculate the tumor inhibition rate. Calculation formula of tumor inhibition rate: tumor inhibition rate (%)=(Wmodel group−Wadministration group)/Wmodel group×100%
The tumor growths of the experimental group and the solvent control group were compared to evaluate the antitumor activity of each compound, and the compound with P<0.05 was considered to be effective.

## CCCCCCCCCCCC(=O)O[C@@]12C[C@@H](C)[C@]34C=C(C)[C@H](OC(=O)c5c(CC)noc5CC)[C@@]3(O)[C@H](O)C(CO)=C[C@H](C4=O)[C@@H]1C2(C)C [Compound 22, 3-O-(3,5-diethylisoxazolyl-4-formyl)-13-O-dodecanoyl-ingenol]
[1]
  IC50: 18.3 µg/mL (≈ 26.2 µM)
[2]
  IC50: 11.3 µg/mL (≈ 16.2 µM)
[3]
  IC50: 11 µg/mL (≈ 15.8 µM)
[4]
  IC50: 1.14 µg/mL (≈ 1.63 µM)
[5]
  IC50: 20.1 µg/mL (≈ 28.8 µM)
[6]
  IC50: 10.9 µg/mL (≈ 15.6 µM)
[7]
  IC50: 9.59 µg/mL (≈ 13.7 µM)
[8]
  IC50: 2.96 µg/mL (≈ 4.24 µM)
[9]
  activation at 0.1 µg/mL: 124%
[10]
  activation at 0.1 µg/mL: 144%
[11]
  Tumor-inhibition rate: 39.5%
